SMILES strings stand for the structures.

In this test the test system is MV-4-11 cells. The test is described as follows: Gene expression microarray analysis (Affymetrix PrimeView) and GSEA. Conditions: MV-4-11 cells, 48 hours. Set-up: RFU PODN (11730768_x_at) / Fold change /veh PODN (11730768_x_at) / RFU LINC00158 (11744669_a_at) / Fold change /veh LINC00158 (11744669_a_at) / RFU DUSP10 (11751237_a_at) / Fold change /veh DUSP10 (11751237_a_at) / RFU ID3 (11757404_x_at) / Fold change /veh ID3 (11757404_x_at) / RFU PLEKHG5 (11737974_s_at) / Fold change /veh PLEKHG5 (11737974_s_at) / RFU LRRC4B (11730491_at) / Fold change /veh LRRC4B (11730491_at) / RFU GIMAP4 (11747438_a_at) / Fold change /veh GIMAP4 (11747438_a_at) / RFU KRT8 (11758183_x_at) / Fold change /veh KRT8 (11758183_x_at) / RFU CNN1 (11734310_a_at) / Fold change /veh CNN1 (11734310_a_at) / RFU VPS37D (11726825_at) / Fold change /veh VPS37D (11726825_at) / RFU C10orf10 (11716522_x_at) / Fold change /veh C10orf10 (11716522_x_at) / RFU KIR2DL2 /// KIR2DL4 /// KIR2DL5A /// KIR2DL5B /// KIR2DS1 /// KIR2DS2 /// KIR2DS3 /// KIR2DS4 /// KIR3DL3 /// KIR3DL3 /// KIR3DS1 (11738374_at) / Fold change /veh KIR2DL2 /// KIR2DL4 /// KIR2DL5A /// KIR2DL5B /// KIR2DS1 /// KIR2DS2 /// KIR2DS3 /// KIR2DS4 /// KIR3DL3 /// KIR3DL3 /// KIR3DS1 (11738374_at) / RFU C1QL1 (11718748_at) / Fold change /veh C1QL1 (11718748_at) / RFU TMPRSS4 (11747572_a_at) / Fold change /veh TMPRSS4 (11747572_a_at) / RFU HAMP (11756126_x_at) / Fold change /veh HAMP (11756126_x_at) / RFU RNFT2 (11725882_a_at) / Fold change /veh RNFT2 (11725882_a_at) / RFU NR4A2 (11747474_a_at) / Fold change /veh NR4A2 (11747474_a_at) / RFU ABCC12 (11746883_a_at) / Fold change /veh ABCC12 (11746883_a_at) / RFU TMEM136 (11760407_x_at) / Fold change /veh TMEM136 (11760407_x_at) / RFU CLDN22 /// WWC2 (11732394_at) / Fold change /veh CLDN22 /// WWC2 (11732394_at) / RFU HLA-DPB1 (11760878_x_at) / Fold change /veh HLA-DPB1 (11760878_x_at) / RFU SPINT1 (11716480_a_at) / Fold change /veh SPINT1 (11716480_a_at) / RFU GAP43 (11754022_s_at) / Fold change /veh GAP43 (11754022_s_at) / RFU A4GNT (11735810_at) / Fold change /veh A4GNT (11735810_at) / RFU PRB3 (11715151_x_at) / Fold change /veh PRB3 (11715151_x_at) / RFU TUBB4B (11761932_at) / Fold change /veh TUBB4B (11761932_at) / RFU CAPN14 (11732068_a_at) / Fold change /veh CAPN14 (11732068_a_at) / RFU TMCC2 (11721928_a_at) / Fold change /veh TMCC2 (11721928_a_at) / RFU IRGQ (11745062_a_at) / Fold change /veh IRGQ (11745062_a_at) / RFU FAM174B (11720279_a_at) / Fold change /veh FAM174B (11720279_a_at) / RFU TMPRSS4 (11748680_a_at) / Fold change /veh TMPRSS4 (11748680_a_at) / RFU FAM212B (11763350_a_at) / Fold change /veh FAM212B (11763350_a_at) / RFU PLEKHG5 (11743358_a_at) / Fold change /veh PLEKHG5 (11743358_a_at) / RFU ZSCAN30 (11745921_a_at) / Fold change /veh ZSCAN30 (11745921_a_at) / RFU CMKLR1 (11741424_a_at) / Fold change /veh CMKLR1 (11741424_a_at) / RFU LOC101060620 /// MAPK8IP1 (11723275_at) / Fold change /veh LOC101060620 /// MAPK8IP1 (11723275_at) / RFU SPTSSB (11747773_x_at) / Fold change /veh SPTSSB (11747773_x_at) / RFU PRSS12 (11739890_at) / Fold change /veh PRSS12 (11739890_at) / RFU BIN1 (11741810_x_at) / Fold change /veh BIN1 (11741810_x_at) / RFU WNT11 (11732464_a_at) / Fold change /veh WNT11 (11732464_a_at) / RFU C10orf10 (11716521_a_at) / Fold change /veh C10orf10 (11716521_a_at) / RFU C5orf56 (11738089_at) / Fold change /veh C5orf56 (11738089_at) / RFU CYB561 (11721691_x_at) / Fold change /veh CYB561 (11721691_x_at) / RFU ANKRD19P (11752326_a_at) / Fold change /veh ANKRD19P (11752326_a_at) / RFU OR2T12 /// OR2T33 /// OR2T8 (11738714_s_at) / Fold change /veh OR2T12 /// OR2T33 /// OR2T8 (11738714_s_at) / RFU VCAN (11748164_a_at) / Fold change /veh VCAN (11748164_a_at) / RFU JSRP1 (11732532_at) / Fold change /veh JSRP1 (11732532_at) / RFU KRTAP10-11 (11738290_x_at) / Fold change /veh KRTAP10-11 (11738290_x_at) / RFU MYO3A (11730013_a_at) / Fold change /veh MYO3A (11730013_a_at) / RFU EBF3 (11725865_a_at) / Fold change /veh EBF3 (11725865_a_at) / RFU CAMK2N1 (11719241_x_at) / Fold change /veh CAMK2N1 (11719241_x_at) / RFU C5orf56 (11738088_a_at) / Fold change /veh C5orf56 (11738088_a_at) / RFU OLFML3 (11715873_a_at) / Fold change /veh OLFML3 (11715873_a_at) / RFU LOC100653217 /// NTM (11731650_a_at) / Fold change /veh LOC100653217 /// NTM (11731650_a_at) / RFU MAPK11 (11762145_a_at) / Fold change /veh MAPK11 (11762145_a_at) / RFU FIZ1 (11724087_x_at) / Fold change /veh FIZ1 (11724087_x_at) / RFU OASL (11726364_x_at) / Fold change /veh OASL (11726364_x_at) / RFU SOX15 (11748057_x_at) / Fold change /veh SOX15 (11748057_x_at) / RFU CD79A (11719716_a_at) / Fold change /veh CD79A (11719716_a_at) / RFU HIST1H1D (11736915_at) / Fold change /veh HIST1H1D (11736915_at) / RFU CASKIN2 (11723855_a_at) / Fold change /veh CASKIN2 (11723855_a_at) / RFU LOC730098 (11760151_x_at) / Fold change /veh LOC730098 (11760151_x_at) / RFU OR4N2 (11742367_at) / Fold change /veh OR4N2 (11742367_at) / RFU PRRT2 (11749266_a_at) / Fold change /veh PRRT2 (11749266_a_at) / RFU SNX32 (11753110_a_at) / Fold change /veh SNX32 (11753110_a_at) / RFU CDHR5 (11726645_a_at) / Fold change /veh CDHR5 (11726645_a_at) / RFU RCAN1 (11760418_a_at) / Fold change /veh RCAN1 (11760418_a_at) / RFU FAM167A (11723789_a_at) / Fold change /veh FAM167A (11723789_a_at) / RFU FAM26E (11764081_at) / Fold change /veh FAM26E (11764081_at) / RFU ISYNA1 (11749810_s_at) / Fold change /veh ISYNA1 (11749810_s_at) / RFU ACY1 (11761880_at) / Fold change /veh ACY1 (11761880_at) / RFU 11764098_at / Fold change /veh 11764098_at / RFU SAMD14 (11745864_x_at) / Fold change /veh SAMD14 (11745864_x_at) / RFU NPB (11741838_a_at) / Fold change /veh NPB (11741838_a_at) / RFU TMPRSS6 (11731388_a_at) / Fold change /veh TMPRSS6 (11731388_a_at) / RFU KRTAP10-2 (11738614_at) / Fold change /veh KRTAP10-2 (11738614_at) / RFU ARHGAP8 /// PRR5-ARHGAP8 (11727945_x_at) / Fold change /veh ARHGAP8 /// PRR5-ARHGAP8 (11727945_x_at) / RFU KRTAP5-7 /// NADSYN1 (11734609_at) / Fold change /veh KRTAP5-7 /// NADSYN1 (11734609_at) / RFU RASL12 (11751679_a_at) / Fold change /veh RASL12 (11751679_a_at) / RFU CDKN2B (11736163_a_at) / Fold change /veh CDKN2B (11736163_a_at) / RFU PRF1 (11729649_at) / Fold change /veh PRF1 (11729649_at) / RFU, ZNF638 /// ZNF638-IT1 / Fold change vs veh, ZNF638 /// ZNF638-IT1 / RFU, PANK3 / Fold change vs veh, PANK3 / RFU, SH3YL1 / Fold change vs veh, SH3YL1 / RFU, ZEB2 / Fold change vs veh, ZEB2 / RFU, NRIP1 / Fold change vs veh, NRIP1 / RFU, PTTG1IP / Fold change vs veh, PTTG1IP / RFU, CAPN2 / Fold change vs veh, CAPN2 / RFU, MED14 / Fold change vs veh, MED14 / RFU, SNORA58 / Fold change vs veh, SNORA58 / RFU, C1orf63 / Fold change vs veh, C1orf63 / RFU, LRRFIP1 / Fold change vs veh, LRRFIP1 / RFU, NDUFAF7 / Fold change vs veh, NDUFAF7 / RFU, SLC12A2 / Fold change vs veh, SLC12A2 / RFU, IBTK / Fold change vs veh, IBTK / RFU, ESF1 / Fold change vs veh, ESF1 / Fold change vs veh, TMEM50B / RFU, TAOK1 / Fold change vs veh, TAOK1 / RFU, ACBD3 / Fold change vs veh, ACBD3 / RFU, TMA16 / Fold change vs veh, TMA16 / RFU, RWDD3 / Fold change vs veh, RWDD3 / RFU, BCAT1 / Fold change vs veh, BCAT1 / RFU, EDEM3 / Fold change vs veh, EDEM3 / RFU, TMEM33 / Fold change vs veh, TMEM33 / RFU, WDR75 / Fold change vs veh, WDR75 / RFU, AHCTF1 / Fold change vs veh, AHCTF1 / RFU, TFRC / Fold change vs veh, TFRC / RFU, ZDHHC17 / Fold change vs veh, ZDHHC17 / RFU, NOM1 / Fold change vs veh, NOM1 / RFU, ARL8B / Fold change vs veh, ARL8B / RFU, ZBTB11 / Fold change vs veh, ZBTB11 / RFU, TAMM41 / Fold change vs veh, TAMM41 / RFU, KIAA1704 /// LOC100996395 / Fold change vs veh, KIAA1704 /// LOC100996395 / RFU, ING1 / Fold change vs veh, ING1 / RFU, TRMT61B / Fold change vs veh, TRMT61B / RFU, FUBP3 / Fold change vs veh, FUBP3 / RFU, TP53 / Fold change vs veh, TP53 / RFU, TNKS2 / Fold change vs veh, TNKS2 / RFU, ZFP14 / Fold change vs veh, ZFP14 / RFU, ACTR2 / Fold change vs veh, ACTR2 / RFU, PPP3R1 / Fold change vs veh, PPP3R1 / RFU, PIK3R1 / Fold change vs veh, PIK3R1 / RFU, HNRNPA1 / Fold change vs veh, HNRNPA1 / RFU, RNF170 / Fold change vs veh, RNF170 / RFU, ZNF28 / Fold change vs veh, ZNF28 / RFU, RNGTT / Fold change vs veh, RNGTT / RFU, OGT / Fold change vs veh, OGT / RFU, BRD1 / Fold change vs veh, BRD1 / RFU, MARS / Fold change vs veh, MARS / RFU, ZNF655 / Fold change vs veh, ZNF655 / RFU, FAHD1 / Fold change vs veh, FAHD1 / RFU, BDP1 / Fold change vs veh, BDP1 / RFU, LRRCC1 / Fold change vs veh, LRRCC1 / RFU, ARID1A / Fold change vs veh, ARID1A / RFU, ZNF146 / Fold change vs veh, ZNF146 / RFU, ZNF330 / Fold change vs veh, ZNF330 / RFU, GPN3 / Fold change vs veh, GPN3 / RFU, C9orf123 / Fold change vs veh, C9orf123 / RFU, N4BP2L2 / Fold change vs veh, N4BP2L2 / RFU, ARFIP1 / Fold change vs veh, ARFIP1 / RFU, FAM179B / Fold change vs veh, FAM179B / RFU, BCL10 / Fold change vs veh, BCL10 / RFU, UHRF1BP1L / Fold change vs veh, UHRF1BP1L / RFU, BET1 / Fold change vs veh, BET1 / RFU, CNOT2 / Fold change vs veh, CNOT2 / RFU, ZNF268 / Fold change vs veh, ZNF268 / Fold change vs veh, ZNF507 / RFU, DGCR2 / Fold change vs veh, DGCR2 / RFU, WDSUB1 / Fold change vs veh, WDSUB1 / Fold change vs veh, HSP90B1 /// MIR3652 / RFU, ADSS / Fold change vs veh, ADSS / RFU, GK / Fold change vs veh, GK / RFU, ZNF148 / Fold change vs veh, ZNF148 / RFU, TAF9 / Fold change vs veh, TAF9 / RFU, SLC1A5 / Fold change vs veh, SLC1A5 / RFU, SLMO2 / Fold change vs veh, SLMO2 / RFU, ABCC4 / Fold change vs veh, ABCC4 / RFU, LOC101060439 /// RAP1B / Fold change vs veh, LOC101060439 /// RAP1B / RFU, RFX7 / Fold change vs veh, RFX7 / RFU, GTPBP10 / Fold change vs veh, GTPBP10 / RFU, CNEP1R1 / Fold change vs veh, CNEP1R1 / RFU, BIVM-ERCC5 /// ERCC5 / Fold change vs veh, BIVM-ERCC5 /// ERCC5 / RFU, ILF3 / Fold change vs veh, ILF3 / RFU 11762660_at / Fold change /veh 11762660_at / RFU VCAN (11757783_s_at) / Fold change /veh VCAN (11757783_s_at) / RFU DDX43 (11728927_at) / Fold change /veh DDX43 (11728927_at) / RFU KRT8 (11758188_x_at) / Fold change /veh KRT8 (11758188_x_at) / RFU NKD1 (11759106_at) / Fold change /veh NKD1 (11759106_at) / RFU SRD5A1 (11742802_a_at) / Fold change /veh SRD5A1 (11742802_a_at) / RFU TPSAB1 /// TPSB2 (11721975_s_at) / Fold change /veh TPSAB1 /// TPSB2 (11721975_s_at) / RFU GSTM3 (11746129_a_at) / Fold change /veh GSTM3 (11746129_a_at) / RFU IL23R (11737362_x_at) / Fold change /veh IL23R (11737362_x_at) / RFU TMEM51 (11727254_a_at) / Fold change /veh TMEM51 (11727254_a_at) / RFU PIWIL2 (11732686_x_at) / Fold change /veh PIWIL2 (11732686_x_at) / RFU ORM1 (11744905_x_at) / Fold change /veh ORM1 (11744905_x_at) / RFU CCDC152 (11743942_at) / Fold change /veh CCDC152 (11743942_at) / RFU ECM1 (11717891_a_at) / Fold change /veh ECM1 (11717891_a_at) / RFU IL23R (11748794_a_at) / Fold change /veh IL23R (11748794_a_at) / RFU TNFAIP8L3 (11732012_x_at) / Fold change /veh TNFAIP8L3 (11732012_x_at) / RFU MBOAT4 (11741988_at) / Fold change /veh MBOAT4 (11741988_at) / RFU 11764193_at / Fold change /veh 11764193_at / RFU TMEM53 (11763286_at) / Fold change /veh TMEM53 (11763286_at) / RFU MAGEB2 (11727129_at) / Fold change /veh MAGEB2 (11727129_at) / RFU TMEM200A (11744735_a_at) / Fold change /veh TMEM200A (11744735_a_at) / RFU CCDC152 (11751479_a_at) / Fold change /veh CCDC152 (11751479_a_at) / RFU FAM211A (11726209_a_at) / Fold change /veh FAM211A (11726209_a_at) / RFU RGS16 (11746705_a_at) / Fold change /veh RGS16 (11746705_a_at) / RFU VCAN (11755009_s_at) / Fold change /veh VCAN (11755009_s_at) / RFU RHOB (11743442_s_at) / Fold change /veh RHOB (11743442_s_at) / RFU RGS16 (11720943_a_at) / Fold change /veh RGS16 (11720943_a_at) / RFU RGS16 (11720944_at) / Fold change /veh RGS16 (11720944_at) / RFU, VPS4B / Fold change vs veh, VPS4B / RFU, CREB1 / Fold change vs veh, CREB1 / RFU, DNAJC13 / Fold change vs veh, DNAJC13 / RFU, GNAQ / Fold change vs veh, GNAQ / RFU, CDK5R1 / Fold change vs veh, CDK5R1 / RFU, ZRANB3 / Fold change vs veh, ZRANB3 / RFU, CUL4A / Fold change vs veh, CUL4A / RFU, CCNY / Fold change vs veh, CCNY / RFU, UFL1 / Fold change vs veh, UFL1 / RFU, COG3 / Fold change vs veh, COG3 / RFU, DIAPH2 / Fold change vs veh, DIAPH2 / RFU, SKA2 / Fold change vs veh, SKA2 / RFU, AFF3 / Fold change vs veh, AFF3 / RFU, LMF1 / Fold change vs veh, LMF1 / RFU, IPO11 / Fold change vs veh, IPO11 / RFU, DFFB / Fold change vs veh, DFFB / RFU, FOXP1 / Fold change vs veh, FOXP1 / RFU, CARD8 / Fold change vs veh, CARD8 / RFU, STRN3 / Fold change vs veh, STRN3 / RFU, ADK / Fold change vs veh, ADK / RFU, RASSF2 / Fold change vs veh, RASSF2 / RFU, WIPF1 / Fold change vs veh, WIPF1 / RFU, LARP1B / Fold change vs veh, LARP1B / RFU, RASA1 / Fold change vs veh, RASA1 / RFU, RB1 / Fold change vs veh, RB1 / RFU, PPFIA1 / Fold change vs veh, PPFIA1 / RFU, MAT2A / Fold change vs veh, MAT2A / RFU, CCT5 / Fold change vs veh, CCT5 / RFU, WDR92 / Fold change vs veh, WDR92 / RFU, CUX1 / Fold change vs veh, CUX1 / RFU, TTC7A / Fold change vs veh, TTC7A / RFU, TMEM135 / Fold change vs veh, TMEM135 / RFU, DEPTOR / Fold change vs veh, DEPTOR / RFU, CPM / Fold change vs veh, CPM / RFU, DNAJB6 / Fold change vs veh, DNAJB6 / RFU, CACNA2D3 / Fold change vs veh, CACNA2D3 / RFU, DTX4 / Fold change vs veh, DTX4 / RFU, TFCP2 / Fold change vs veh, TFCP2 / RFU, GMCL1 /// GMCL1P1 / Fold change vs veh, GMCL1 /// GMCL1P1 / RFU, AEBP2 / Fold change vs veh, AEBP2 / RFU, SNHG1 /// SNORD22 /// SNORD25 /// SNORD26 /// SNORD27 /// SNORD28 /// SNORD29 /// SNORD31 / Fold change vs veh, SNHG1 /// SNORD22 /// SNORD25 /// SNORD26 /// SNORD27 /// SNORD28 /// SNORD29 /// SNORD31 / Fold change (Aza/veh), C12orf56 (ProbeSet 11735607_a_at) / Fold change (ACY-1035/veh), C12orf56 (ProbeSet 11735607_a_at) / Fold change (Aza/veh), FGFR1OP (ProbeSet 11751329_s_at) / Fold change (ACY-1035/veh), FGFR1OP (ProbeSet 11751329_s_at) / Fold change (Aza/veh), VPS36 (ProbeSet 11739960_a_at) / Fold change (ACY-1035/veh), VPS36 (ProbeSet 11739960_a_at) / RFU SYPL1 (11715823_x_at) / Fold change /veh SYPL1 (11715823_x_at) / RFU IGFBP7 (11715501_s_at) / Fold change /veh IGFBP7 (11715501_s_at) / RFU REEP3 (11722064_at) / Fold change /veh REEP3 (11722064_at) / RFU IGLL1 (11728026_x_at) / Fold change /veh IGLL1 (11728026_x_at): dose or concentration left out as unconfirmed. Type of test: cell-based, human.

Regarding `Nc1ncn([C@@H]2O[C@H](CO)[C@@H](O)[C@H]2O)c(=O)n1` [azacitidine], the “Fold change /veh C1QL1 (11718748_at)” value is 0.93.
